# Values of other authors as cited in US6984402B2, “Chrono delivery formulations and method of treating atrial fibrillation” (Elite Laboratories, Inc., priority 2000, dated 2006).
smiles,measurement,setting,value
COc1ccc([C@@H]2Sc3ccccc3N(CCN(C)C)C(=O)[C@@H]2OC(C)=O)cc1 [diltiazem],half-life in blood,humans,3 to 4 h
same,absolute bioavailability,"oral, compared with intravenous administration",40%
